Results as given in publication PMC12169663, “Deciphering the Tumor Uptake of Heterobivalent (SST2/Albumin) [^64Cu]Cu-NODAGA-cLAB-TATEs” (Journal of Medicinal Chemistry, 2025).
*1 amine or outer side, *2 acyl side, *3 side chain or, on linkers, in order; H or OH if unused. Where a SMILES comes first, the peptide text is derived from it. Bridges are numbered along the chain shown (N, C = ends). [ ]: non-standard residue; d: D form. The star is where a group is joined. Ala(1-(4-CO-Ph)triazol-4-yl) = O=C([C@H](Cc1cn(-c2ccc(C(=O)[*:3])cc2)nn1)N[*:1])[*:2]; X1 = O=C(O)CN1CCN(CC(=O)O)CCN([C@H](CCC(=O)*)C(=O)O)CC1; X2 = Cc1ccc(CCCC(=O)NCCCC[C@H](N*)C(N)=O)cc1; AEEA = NCCOCCOCC(=O)O

Tests used:
[1] = n-Octanol/PBS distribution coefficient (log D7.4)
Procedure: The log D7.4 values of the ^64Cu-labeled peptides were determined with the octanol partitioning method.
The determination of the log D7.4 value was done in triplicate as previously described. , Briefly, a sample of the radioligand was added to the 1:1 mixture of PBS/n-octanol. The radioactivity in a defined volume of each layer was measured (ISOMED 2100). The distribution coefficient was expressed as the logarithm of the ratio of counts per minute (cpm) measured in the n-octanol phase to the cpm measured in the PBS phase.

[2] = Small-animal PET imaging in subcutaneous MPC tumor allograft model; conditions: female, NMRI-nu/nu (Rj:NMRI-Foxn1nu/nu), mouse, iv, total radioactivity
Procedure: (§1) The biodistribution of [ ^ 64 Cu]­Cu-NODAGA-cLAB­(5/6)-TATE, [ ^ 64 Cu]­Cu-NODAGA-cLAB4- scr TATE, and [ ^ 64 Cu]­Cu-DOTA-EB-TATE was assessed in a subcutaneous MPC tumor allograft model via small-animal PET imaging (Figure A–D). The time-activity curves (TACs) for tumor, kidneys, and heart are shown in Figure A–D (for TACs of muscle and liver, see Figure S6) and the calculated areas under curves (AUC0–48h) and tumor-to-tissue ratios are graphically summarized in Figure E,F, respectively.
(§2) (A–D) Time-activity curves (SUV, decay-corrected, as a function of time up to 48 h) obtained by PET acquisition are depicted (0–2 h in dynamic mode and time points 5, 24, and 48 h p.i.; the x-axes are segmented accordingly). Data shown are mean values (±SD) of a group of MPC tumor-bearing NMRI-nu/nu mice (n = 2, but for cLAB6-TATE n = 4). […] (E) Calculated AUC0–48h values. Data shown are mean values (±SD). (F) Tumor/organ ratios based in the AUC0–48h values.
(§3) A number of 4 × 10^6 MPC cells were resuspended in 40 μL of Dulbecco’s phosphate-buffered saline and injected subcutaneously into the shoulder of 7–10-week-old female nude mice (Rj:NMRI-Foxn1^nu/nu, Janvier Laboratories, Le Genest-Saint-Isle, France). General anesthesia was induced and maintained with inhalation of 10% (v/v) desflurane in 30% oxygen/air (v/v). Tumor growth was monitored using caliper measurements. Animals were sacrificed using CO2 inhalation and cervical dislocation. When diameters of MPC tumors reached 8 ± 3 mm (volumes of 65–282 mm^3), small-animal positron emission tomography (PET) was performed using the nanoScan PET/CT (Mediso Medical Imaging Systems, Budapest, Hungary) and Si78 PET/CT (BRUKER, Billerica, MA) instruments. Scanners were cross-calibrated using a syringe source containing 10 MBq of [^64Cu]­CuCl2 diluted in 2 mL of 0.01 M HCl. Each mouse (n = 2) received between 7 and 10 MBq of the respective radioligand (A m = 40 GBq/μmoL) delivered in 0.154 M NaCl via intravenous injection through a tail vein catheter within the initial 30 s after scan start. […] Standardized uptake values (SUV = [MBq detected activity/mL tissue]/[MBq injected activity/g body weight]) were determined in defined volumes of interest (VOIs) and reported as VOI-averaged SUVmean ± range [min–max]. Assuming a density of 1 g/mL for body tissues, the SUVs become dimensionless.

[3] = system: MPC tumor-bearing NMRI-nu/nu mice; assay: as above
Procedure: as §1, §2, §3

[4] = molecular target: human serum albumin (HSA) (Homo sapiens, UniProt P02768); assay: Radiometric ultrafiltration assay for binding to HSA
Procedure: The ultrafiltration assay used to quantify the binding of the ^64Cu-labeled peptides to HSA was performed as previously described for NODAGA-cLAB-TATEs. , Briefly, a constant activity amount of the radioligands (10–15 MBq) were mixed with different HSA concentrations (200 nM–1.4 mM). Aliquots were loaded into the ultrafiltration devices (4104 centrifugal filter units by Millipore; 30 000 Da nominal molecular weight limit, methylcellulose micropartition membranes) and centrifuged. After centrifugation, aliquots from the top and bottom fractions were measured in a γ-counter (PerkinElmer, Wizard^2 2480 automatic gamma counter). The retained fraction was calculated as a quotient of these measurements. The dissociation constant, K d, was calculated using the Morrison equation.

[5] = molecular target: T1, SST2 (Mus musculus, UniProt P30875); assay: Saturation binding analysis to SST2 using intact MPC cells
T1 construct: a mouse pheochromocytoma cell line (MPC) with a high endogenous abundance of SST2 was used; endogenous in cells; host or cells: MPC (mouse pheochromocytoma) cells, intact
Procedure: Binding assay was performed as previously described. , A number of 3 × 10^5 cells/cm^2 were seeded in collagen-coated 48-well microplates (CELLSTAR 48 Well Cell Culture Multiwell Plates, Polystyrene, Greiner Bio-One, item no. 677180) and grown for 3 days. For binding assays, the cell culture medium was removed and replaced by fresh medium supplemented with the radioligand (Am = 25 MBq/nmol) at increasing final concentrations between 0.321 and 40 nM (final sample volume: 0.2 mL). Nonspecific cell binding was measured in the presence of nonlabeled DOTA-TATE or Acetyl-TATE at a final concentration of 1 μM. Nonspecific binding to plastic surfaces was determined in cell-free wells at radioligand concentrations of 0.312, 1.25, 5, and 20 nM (with and without 1 μM nonlabeled DOTA-TATE or Acetyl-TATE; the values at the other radioligand concentrations were derived by linear regression). Samples were incubated for 60 min at 37 °C. Incubation was stopped by washing with ice-cold Dulbecco’s PBS. Cells were lysed with 0.1 M NaOH containing 1% (w/v) SDS. Activity was measured in cell homogenates and in a series of radioligand standards containing increasing molar amounts between 0.06 and 8 pmol using the gamma counter Wizard (PerkinElmer). The protein content of cell homogenates was measured as described above. Measurements for total binding were performed in triplicate, while measurements for nonspecific binding were performed in duplicates.
Calculations were performed as previously described. , Plots of “total binding” = f(radioligand) were analyzed by nonlinear regressions using the model of “one site-total, accounting for ligand depletion” as implemented in GraphPad Prism and plots of “nonspecific binding” = f(radioligand) were analyzed by linear regressions (Figure S3). For the ligand depletion model, the term “NS” was constrained to the respective slopes obtained by the linear regressions. The terms “SpecAct” (obtained with standard curves, Figure S4) and “Vol” (0.2 mL, assay volume) were also constrained. […]

[6] = Plasma stability assay, mouse plasma; type: in vitro ADME
From the text: Previously, we discovered that the ^64Cu-labeled NODAGA-cLAB-TATEs with a primary amide functionality within the albumin-binding moiety are subject to a metabolic transformation in mouse plasma. In fact, the primary amide is slowly hydrolyzed to the carboxylic acid, which turned out to be catalyzed by plasma carboxylesterases as proven by blocking this transformation in the presence of bis-para-nitrophenylphosphate. […] As this transformation entails also an increase in the binding affinity to albumin, there might be effects on the biodistribution in mice, in particular the blood circulation time. To investigate this, NODAGA-cLAB6-TATE was designed, with cLAB6 (N3Bz-D-Lys(MPB)-NH2) representing the D-configured pendant of cLAB4 (N3Bz-L-Lys(MPB)-NH2). […] However, the apparent half-lives for both compounds (≈13 and >24 h) are longer compared to the half-lives previously determined for [ ^ 64 Cu]-Cu-NODAGA-cLAB3-TATE and [ ^ 64 Cu]-Cu-NODAGA-cLAB4-TATE (≈6 and ≈3 h, respectively). For better comparability, the stability of [ ^ 64 Cu]-Cu-NODAGA-cLAB4-TATE was again examined with the same mouse plasma batch used for [ ^ 64 Cu]-Cu-NODAGA-cLAB5-TATE and [ ^ 64 Cu]-Cu-NODAGA-cLAB4- scr TATE. […] Therefore, the discrepancy with our previously reported stability data in mouse plasma might result from differences in the activity of plasma carboxylesterases in the obtained mouse plasma. However, the rate of amide hydrolysis is indeed lower for [ ^ 64 Cu]-Cu-NODAGA-cLAB4- scr TATE, independent of the mouse plasma batch, which might indicate that the actual amino acid sequence in these peptides affects the recognition by the plasma carboxylesterases.
2 Stability of the ^64Cu-labeled TATE derivatives in mouse plasma. (A) Radio-HPLC chromatograms of [^64Cu]-Cu-NODAGA-cLAB5-TATE (red), [^64Cu]-Cu-NODAGA-cLAB6-TATE (green), and [^64Cu]-Cu-NODAGA-cLAB- scr TATE (blue) after ^64Cu-labeling and incubation in mouse plasma for 24 h show the transformation of [^64Cu]-Cu-NODAGA-cLAB5-TATE and [^64Cu]-Cu-NODAGA-cLAB4- scr TATE into a metabolite of higher retention time (see the Discussion for explanation). (B) Plot of residual intact radioligands upon incubation with mouse plasma including nonlinear regression (black line) according to one-phase decay for [^64Cu]-Cu-NODAGA-cLAB5-TATE (red circles). The dotted lines represent fractions of 0.5 and 0.9. Data shown are mean values (±SD) from 1 to 3 experiments (each experiment was performed in single execution). […]
Plasma stability of the radioligands was done as previously described for NODAGA-cLAB-TATE and NODAGA-NES-TATEs. , Briefly, an aliquot of the radioligand was added to plasma and stability was assessed at different time points by withdrawing an aliquot, followed by protein precipitation and analysis by radio-HPLC.

[7] = molecular target: HSA (Homo sapiens, UniProt P02768); assay: Estimation of Kd[HSA] from structure-activity relationships of the isolated cLABs
From the text: Table S1: Comparison of estimated and determined Kd[HSA] values for the 64Cu-labeled TATE derivatives bearing an albumin […]
predicted determinedi predict./determ. cLAB1 R1-pentanoyl-D-Lys(IPB)-OH 8.0a 3.1j 2.6 cLAB2 R1-benzoyl-L-Lys(IPB)-OH 0.36b 1.8j 0.2 cLAB3 R1-benzoyl-L-Lys(IPB)-NH2 7.9c 9.2j 0.9 […]
cLAB4-scrTATE R1-benzoyl-L-Lys(MPB)-NH2 66d 42 1.6 a Represents the Kd value of the albumin binder (R)-1e (5-N3-pentanoyl-D-Lys(IPB)-OH).1 b Represents the Kd value of the albumin binder (S)-1f (4-N3-benzoyl-L-Lys(IPB)-OH).1 c Calculated using the Kd value of the respective carboxylic acid ((S)-1f) and a factor of 22, which is the factor between Acetyl-L-Lys(IPB)-OH ((S)-1c) an Acetyl-L-Lys(IPB)-NH2 ((S)-2a).1 […]
f Calculated using the Kd value of the respective carboxylic acid ((S)-1f) and the factors of 22 (carboxylic acid → carboxamide) and 2.2 (L → D configuration, factor between (S)-1c and (R)-1c).1 g Represents the Kd value determined for the non-radioactive compound using the fluorescence-based competition […]
h Compound names were abbreviated. i Determined using the radiometric ultrafiltration assay described in the main article. j Previously determined by us.1

T1 sequence (P30875 whole entry): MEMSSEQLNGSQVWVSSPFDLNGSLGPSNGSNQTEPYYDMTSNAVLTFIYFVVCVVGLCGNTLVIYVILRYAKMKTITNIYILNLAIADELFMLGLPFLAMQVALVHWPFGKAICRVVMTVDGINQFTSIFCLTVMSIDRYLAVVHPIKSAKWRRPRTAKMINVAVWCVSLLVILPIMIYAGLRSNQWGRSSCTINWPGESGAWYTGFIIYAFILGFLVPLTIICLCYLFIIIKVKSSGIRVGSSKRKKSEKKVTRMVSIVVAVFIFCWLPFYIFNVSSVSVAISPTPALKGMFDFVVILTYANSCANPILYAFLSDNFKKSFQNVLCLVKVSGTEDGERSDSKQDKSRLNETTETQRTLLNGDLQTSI
human serum albumin (HSA), sequence (P02768 25-609): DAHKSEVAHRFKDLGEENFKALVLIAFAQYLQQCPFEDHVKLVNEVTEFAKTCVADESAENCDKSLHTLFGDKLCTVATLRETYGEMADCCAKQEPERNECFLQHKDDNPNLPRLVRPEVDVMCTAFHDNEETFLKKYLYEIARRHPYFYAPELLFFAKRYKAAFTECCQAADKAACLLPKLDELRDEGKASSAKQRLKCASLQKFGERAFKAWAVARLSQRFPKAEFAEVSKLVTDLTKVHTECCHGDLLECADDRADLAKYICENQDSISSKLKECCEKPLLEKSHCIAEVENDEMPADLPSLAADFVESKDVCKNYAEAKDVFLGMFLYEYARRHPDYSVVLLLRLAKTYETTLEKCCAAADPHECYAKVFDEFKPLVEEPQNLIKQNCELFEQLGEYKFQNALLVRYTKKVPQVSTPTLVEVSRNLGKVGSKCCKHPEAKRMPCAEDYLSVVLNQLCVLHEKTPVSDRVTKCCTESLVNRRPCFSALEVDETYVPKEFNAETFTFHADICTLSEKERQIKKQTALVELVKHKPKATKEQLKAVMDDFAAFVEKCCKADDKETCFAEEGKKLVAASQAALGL
HSA, sequence (P02768 25-609): as above

Q: Which results are given for `Cc1ccc(CCCC(=O)NCCCC[C@H](NC(=O)c2ccc(-n3cc(C[C@H](NC(=O)CC[C@H](C(=O)O)N4CCN(CC(=O)O)CCN(CC(=O)O)CC4)C(=O)NCCOCCOCC(=O)N[C@@H](CCCCN)C(=O)N[C@H]4CSSC[C@@H](C(=O)N[C@H](C(=O)O)[C@@H](C)O)NC(=O)[C@@H](Cc5c[nH]c6ccccc56)NC(=O)[C@@H](Cc5ccccc5)NC(=O)[C@H]([C@@H](C)O)NC(=O)[C@H](Cc5ccc(O)cc5)NC4=O)nn3)cc2)C(N)=O)cc1` [[64Cu]Cu-NODAGA-cLAB4-scrTATE, metal not drawn] (X1-[Ala(1-(4-CO-Ph)triazol-4-yl)](X2)[AEEA]KCYT[dF][dW]CT-OH; disulfide 4-9)?
A: logD [1]: -2.17; SUV at 24 h ([2]; muscle): 0.04 SUV; SUV at 24 h ([2]; tumor): 0.49 SUV; integral tumor uptake relative to [64Cu]Cu-NODAGA-cLAB4-TATE ([3]; AUC0–48h): less than 10%; AUC0-48h heart ([3]; PET, i.v., 7–10 MBq/animal): 41.09 SUVmean*h; AUC0-48h kidney ([3]; PET, i.v., 7–10 MBq/animal): 59.26 SUVmean*h; AUC0-48h liver ([3]; PET, i.v., 7–10 MBq/animal): 25.84 SUVmean*h; AUC0-48h tumor ([3]; PET, i.v., 7–10 MBq/animal): 25 SUVmean*h; AUC0-48h tumor ([3]; PET, i.v., 7–10 MBq/animal, listed as cLAB4-scrTATE): 25.35 SUVmean*h; AUC0–48h muscle ([3]; mouse, in vivo): 5.5 SUVmean*h; integral tumor uptake, fold lower than [64Cu]Cu-NODAGA-TATE ([3]; mouse, in vivo): 6 fold; integral tumor uptake, fold lower than [64Cu]Cu-NODAGA-cLAB4-TATE ([3]; mouse, in vivo): 11 fold; Kd [4]: 42 µM; Kd [SST2] ([5]; 60 min 37 °C, mean (±SEM) of 2–4 experiments): no binding was detected and n.b.; Bmax ([5]; mean (±SEM)): n.b.; half-life ([6]; 37 °C, up to 24 h, single experiment, read-out: t1/2 (plasma), mouse): > 24 h; hydrolysis of the primary amide in mouse plasma ([6]; 24 h, radio-HPLC): hydrolyzed; Ratio Kd predict./determ. [7]: 1.6
